Results from patent publication US9758526B2, “Quinoline-substituted compound” (TAIHO PHARMACEUTICAL CO., LTD., priority 2013, dated 2017).
pIC50: −log10 of the molar value.

Experiments:
[1] = molecular target: T1, EGFR (d746-750/T790M) (Homo sapiens, UniProt P00533, DEL746-750/T790M); assay: EGFR (d746-750/T790M) kinase inhibitory activity; assay type: biochemical; conditions: ATP 1.5 μM
T1 construct: purchased Carna Biosciences, Inc
Experimental: (§1) Among the materials of the inhibitory activity measurement, the substrate peptide and the kinase protein were obtained as follows. A peptide with biotinylated N-terminus (biotin-EEPLYWSFPAKKK) was synthesized with reference to FL-Peptide 22, a reagent for LabChip® series of PerkinElmer, Inc. For the kinase protein, a purified recombinant human EGFR (T790M/L858R) protein of Carna Biosciences, Inc. was purchased.
(§2) The inhibitory activity measurement was performed as follows. The compounds of the present invention were individually dissolved in dimethyl sulfoxide (DMSO), and serial dilutions of these compounds were prepared using DMSO. Subsequently, a solution containing the substrate peptide (final concentration: 250 nM), magnesium chloride (final concentration: 10 mM), manganese chloride (final concentration: 10 mM), and ATP (final concentration: 1 μM) in a buffer solution for kinase reaction (Carna Biosciences, Inc.) was mixed with the dilutions of the compounds (final concentration of DMSO upon kinase reaction: 2.5%) or DMSO (final concentration: 2.5%). EGFR (T790M/L858R) protein was further added thereto, and the mixtures were incubated at 25° C. for 120 minutes to carry out a kinase reaction. EDTA was added thereto to a final concentration of 24 mM to thereby terminate the reaction. A phosphorylated thyrosine detection solution containing europium (Eu)-labeled anti-phosphorylated tyrosine antibody PT66 (PerkinElmer, Inc.) and SureLight APC-SA (PerkinElmer, Inc.) was added to the reaction mixtures, and the mixtures were allowed to stand at room temperature for 2 hours or more. For the background, a sample to which EDTA was added before addition of EGFR (T790M/L858R) protein was incubated at 25° C. for 120 minutes, using DMSO instead of the DMSO solution of the compound. The detection solution was also added to this sample, and the mixture was allowed to stand for 2 hours or more. Finally, for all of the test samples, the amount of fluorescence at the time of irradiation of excitation light having a wavelength of 337 nm was measured at dual wavelengths of 620 nm and 665 nm by PHERAstar FS (BMG LABTECH), and a ratio of the fluorescence amounts at the two wavelengths was obtained as data.
(§3) Based on the above rates, phosphorylation inhibition rates (%) were calculated for the samples to which various concentrations of the compound solutions were added. Finally, the obtained reaction inhibition rates (%) at the respective concentrations were plotted for each compound, and the IC50 value (nM), which is a compound concentration at which phosphorylation by EGFR (T790M/L858R) is inhibited by 50%, was determined using XLfit curve-fitting software (IDBS).
The inhibitory activities of the compounds of the present invention against EGFR (d746-750/T790M) kinase activity were measured.
The materials, the measurement method, and the data analysis method were substantially the same as those shown in the above description regarding “Measurement of EGFR (T790M/L858R) Kinase Inhibitory Activity,” except that a purified recombinant human EGFR (d746-750/T790M) protein purchased from Carna Biosciences, Inc. was used as the kinase protein, and the measurement was performed with an ATP final concentration of 1.5 μM. Finally, the IC50 value (nM) of each compound with respect to EGFR (d746-750/T790M) was determined by data analysis.

[2] = tested on: A431 expressing EGFR (WT); assay: Growth inhibition, A431 expressing EGFR (WT); assay type: cell-based; conditions: Homo sapiens, A-431, 72 h; cultured three days, CellTiter-Glo
Experimental: (§4) (1) A human […] lung cancer cell line NCI-H1975 expressing EGFR (T790M/L858R), (2) a human non-small cell lung cancer cell line HCC827 expressing EGFR (d746-750), and (3) a human epithelioid cancer cell line A431 expressing EGFR (WT) were each suspended in complete growth medium recommended by ATCC. The cell suspensions were seeded in each well of a 384-well flat microplate or a 96-well flat plate, and cultured in an incubator containing 5% carbon dioxide gas at 37° C. for one day. Each compound of the present invention was dissolved in DMSO, and serial dilutions of the test compound were prepared using DMSO (to a concentration 500 times the final concentration). The DMSO solution of the test compound or DMSO was diluted with complete growth medium, and the resulting solution was added to each well of the cell culture plate so that the final concentration of DMSO was 0.2%. Then, the cells were cultured in an incubator containing 5% carbon dioxide gas at 37° C. for three days. The number of cells was measured before the addition of the DMSO solution of the test compound, as well as after addition and culture by using a CellTiter-Glo Assay® (produced by Promega) according to a protocol recommended by Promega.
(§5) For each cell, the cell growth inhibition rates of the wells to which the test compounds at various concentrations were added were calculated by the following formula. Then, the obtained inhibition rates (%) at the respective concentrations were plotted for each test compound, and the GI50 value (nM), which is a test compound concentration at which the cell growth can be inhibited by 50%, was determined using XLfit curve-fitting software (IDBS). • Cell Growth Inhibition Rate (%)=(C−T)/(C−CO)×100 • T: Luminescence intensity of well cultured for three days after addition of the test compound solution • C: Luminescence intensity of well cultured for three days after addition of DMSO • C0: Luminescence intensity of well before addition of the test compound solution

[3] = tested on: NCI-H1975 expressing EGFR (T790M/L858R); assay: Growth inhibition, NCI-H1975 expressing EGFR (T790M/L858R); assay type: cell-based; conditions: Homo sapiens, NCI-H1975, 72 h; cultured three days, CellTiter-Glo
Experimental: as §4, §5

[4] = tested on: HCC827 expressing EGFR (d746-750); assay: Growth inhibition, HCC827 expressing EGFR (d746-750); assay type: cell-based; conditions: Homo sapiens, HCC827, 72 h; cultured three days, CellTiter-Glo
Experimental: as §4, §5

[5] = molecular target: T2, EGFR (d746-750) (Homo sapiens, UniProt P00533, DEL746-750); assay: EGFR (d746-750) kinase inhibitory activity; assay type: biochemical; conditions: ATP 5 μM, kinase reaction 90 minutes
T2 construct: purchased Carna Biosciences, Inc
T2 sequence (P00533 with tags, fused parts or gaps DEL746-750 limits assumed): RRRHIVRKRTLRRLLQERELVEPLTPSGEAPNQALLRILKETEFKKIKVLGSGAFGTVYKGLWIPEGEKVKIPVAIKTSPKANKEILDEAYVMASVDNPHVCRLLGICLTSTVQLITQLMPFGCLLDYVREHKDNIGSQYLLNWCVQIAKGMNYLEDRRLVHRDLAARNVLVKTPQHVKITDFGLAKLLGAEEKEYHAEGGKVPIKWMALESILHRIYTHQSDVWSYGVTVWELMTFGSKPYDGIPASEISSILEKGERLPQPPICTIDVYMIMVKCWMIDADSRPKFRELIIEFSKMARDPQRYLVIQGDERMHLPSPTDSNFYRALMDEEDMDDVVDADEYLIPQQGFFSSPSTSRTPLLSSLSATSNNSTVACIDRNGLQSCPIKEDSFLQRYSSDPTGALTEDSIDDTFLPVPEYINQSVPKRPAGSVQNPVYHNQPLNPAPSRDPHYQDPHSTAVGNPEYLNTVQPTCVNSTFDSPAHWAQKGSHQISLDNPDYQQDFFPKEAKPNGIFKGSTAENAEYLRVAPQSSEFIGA
Experimental: as §1, §2, §3
The inhibitory activities of the compounds of the present invention against EGFR (d746-750) kinase activity were measured.
The materials, the measurement method, and the data analysis method were substantially the same as those shown in the above description regarding “Measurement of EGFR (T790M/L858R) Kinase Inhibitory Activity,” except that a purified recombinant human EGFR (d746-750) protein purchased from Carna Biosciences, Inc. was used as the kinase protein, the measurement was performed with ATP at a final concentration of 5 μM, and the incubation for the kinase reaction was performed for 90 minutes. Finally, the IC50 value (nM) of each compound with respect to EGFR (d746-750) was determined by data analysis.

[6] = molecular target: T3, EGFR (T790M/L858R) (Homo sapiens, UniProt P00533, L858R/T790M); assay: EGFR (T790M/L858R) kinase inhibitory activity; assay type: biochemical; conditions: ATP 1 μM, 25° C. for 120 minutes
T3 construct: purchased Carna Biosciences, Inc
T3 sequence (P00533 25-1210 T790M/L858R): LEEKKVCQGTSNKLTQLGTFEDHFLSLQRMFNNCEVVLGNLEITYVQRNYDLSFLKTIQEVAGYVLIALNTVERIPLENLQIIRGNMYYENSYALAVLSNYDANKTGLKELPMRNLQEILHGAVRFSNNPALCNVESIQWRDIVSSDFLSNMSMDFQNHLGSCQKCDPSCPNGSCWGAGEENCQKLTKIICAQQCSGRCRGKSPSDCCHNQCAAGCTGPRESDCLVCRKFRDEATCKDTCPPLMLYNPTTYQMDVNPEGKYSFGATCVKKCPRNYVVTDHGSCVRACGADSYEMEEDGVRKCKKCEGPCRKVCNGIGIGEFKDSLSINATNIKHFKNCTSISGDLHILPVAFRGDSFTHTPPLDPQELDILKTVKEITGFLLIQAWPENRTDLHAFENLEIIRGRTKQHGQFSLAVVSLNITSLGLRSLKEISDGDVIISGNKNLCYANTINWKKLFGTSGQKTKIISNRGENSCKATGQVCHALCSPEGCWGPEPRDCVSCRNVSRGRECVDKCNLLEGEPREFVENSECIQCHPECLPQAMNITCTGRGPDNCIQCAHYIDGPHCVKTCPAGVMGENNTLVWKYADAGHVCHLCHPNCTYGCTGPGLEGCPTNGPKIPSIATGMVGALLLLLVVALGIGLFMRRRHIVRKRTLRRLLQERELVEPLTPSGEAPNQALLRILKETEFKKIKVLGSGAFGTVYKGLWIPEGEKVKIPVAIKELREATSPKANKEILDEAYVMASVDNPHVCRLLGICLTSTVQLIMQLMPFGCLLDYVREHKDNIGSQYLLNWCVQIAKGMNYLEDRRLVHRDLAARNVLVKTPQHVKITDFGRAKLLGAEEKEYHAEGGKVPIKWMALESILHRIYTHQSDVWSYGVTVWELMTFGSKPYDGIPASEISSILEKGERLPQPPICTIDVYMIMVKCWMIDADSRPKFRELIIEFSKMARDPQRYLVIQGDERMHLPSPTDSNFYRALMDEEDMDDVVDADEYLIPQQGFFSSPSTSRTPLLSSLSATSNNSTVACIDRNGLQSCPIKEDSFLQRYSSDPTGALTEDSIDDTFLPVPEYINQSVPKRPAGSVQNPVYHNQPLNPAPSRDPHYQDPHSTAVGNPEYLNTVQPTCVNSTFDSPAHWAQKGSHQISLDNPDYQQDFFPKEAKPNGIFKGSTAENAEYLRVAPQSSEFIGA
Experimental: The inhibitory activities of the compounds of the present invention against EGFR (T790M/L858R) kinase activity were measured.
as §1, §2, §3

[7] = molecular target: T4, EGFR (WT) (Homo sapiens, UniProt P00533); assay: EGFR (WT) kinase inhibitory activity; assay type: biochemical; conditions: substrate peptide 500 nM
T4 construct: expressing a cytoplasmic domain of human EGFR (WT) with its N-terminus fused to a FLAG tag; FLAG (N); made in house; host or cells: insect Sf9 cells, baculovirus expression system
T4 sequence (P00533 669-1210 limits assumed): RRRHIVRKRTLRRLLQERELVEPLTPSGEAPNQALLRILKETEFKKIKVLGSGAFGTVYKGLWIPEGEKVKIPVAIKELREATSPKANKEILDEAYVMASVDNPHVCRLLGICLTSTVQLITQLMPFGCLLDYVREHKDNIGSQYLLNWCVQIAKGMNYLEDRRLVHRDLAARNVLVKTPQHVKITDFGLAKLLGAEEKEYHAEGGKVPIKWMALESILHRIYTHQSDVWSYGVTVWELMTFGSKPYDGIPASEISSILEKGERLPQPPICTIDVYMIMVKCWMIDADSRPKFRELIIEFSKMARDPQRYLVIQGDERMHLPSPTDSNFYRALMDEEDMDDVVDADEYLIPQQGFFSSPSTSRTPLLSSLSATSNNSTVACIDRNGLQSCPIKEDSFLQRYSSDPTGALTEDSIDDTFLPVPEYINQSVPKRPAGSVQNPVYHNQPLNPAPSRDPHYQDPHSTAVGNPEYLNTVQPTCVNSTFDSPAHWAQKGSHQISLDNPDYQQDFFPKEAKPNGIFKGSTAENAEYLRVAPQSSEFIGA
Experimental: as §1, §2, §3
The inhibitory activities of the compounds of the present invention against EGFR (WT) kinase activity were measured.
The materials, the measurement method, and the data analysis method were substantially the same as those shown in the above description regarding “Measurement of EGFR (T790M/L858R) Kinase Inhibitory Activity,” except that a kinase protein prepared by expressing a cytoplasmic domain of human EGFR (WT) with its N-terminus fused to a FLAG tag in insect Sf9 cells using a baculovirus expression system and then purifying it with anti-FLAG antibody agarose (Sigma-Aldrich) was used as the kinase protein, the final concentration of the substrate peptide was 500 nM, and the final concentration of ATP was […]. Finally, the IC50 value (nM) of each compound with respect to EGFR (WT) was determined by data analysis.

[8] = molecular target: T5, EGFR (L858R) (Homo sapiens, UniProt P00533, L858R); assay: EGFR (L858R) kinase inhibitory activity; assay type: biochemical; conditions: ATP 4 μM
T5 construct: purchased Carna Biosciences, Inc
T5 sequence (P00533 25-1210 L858R): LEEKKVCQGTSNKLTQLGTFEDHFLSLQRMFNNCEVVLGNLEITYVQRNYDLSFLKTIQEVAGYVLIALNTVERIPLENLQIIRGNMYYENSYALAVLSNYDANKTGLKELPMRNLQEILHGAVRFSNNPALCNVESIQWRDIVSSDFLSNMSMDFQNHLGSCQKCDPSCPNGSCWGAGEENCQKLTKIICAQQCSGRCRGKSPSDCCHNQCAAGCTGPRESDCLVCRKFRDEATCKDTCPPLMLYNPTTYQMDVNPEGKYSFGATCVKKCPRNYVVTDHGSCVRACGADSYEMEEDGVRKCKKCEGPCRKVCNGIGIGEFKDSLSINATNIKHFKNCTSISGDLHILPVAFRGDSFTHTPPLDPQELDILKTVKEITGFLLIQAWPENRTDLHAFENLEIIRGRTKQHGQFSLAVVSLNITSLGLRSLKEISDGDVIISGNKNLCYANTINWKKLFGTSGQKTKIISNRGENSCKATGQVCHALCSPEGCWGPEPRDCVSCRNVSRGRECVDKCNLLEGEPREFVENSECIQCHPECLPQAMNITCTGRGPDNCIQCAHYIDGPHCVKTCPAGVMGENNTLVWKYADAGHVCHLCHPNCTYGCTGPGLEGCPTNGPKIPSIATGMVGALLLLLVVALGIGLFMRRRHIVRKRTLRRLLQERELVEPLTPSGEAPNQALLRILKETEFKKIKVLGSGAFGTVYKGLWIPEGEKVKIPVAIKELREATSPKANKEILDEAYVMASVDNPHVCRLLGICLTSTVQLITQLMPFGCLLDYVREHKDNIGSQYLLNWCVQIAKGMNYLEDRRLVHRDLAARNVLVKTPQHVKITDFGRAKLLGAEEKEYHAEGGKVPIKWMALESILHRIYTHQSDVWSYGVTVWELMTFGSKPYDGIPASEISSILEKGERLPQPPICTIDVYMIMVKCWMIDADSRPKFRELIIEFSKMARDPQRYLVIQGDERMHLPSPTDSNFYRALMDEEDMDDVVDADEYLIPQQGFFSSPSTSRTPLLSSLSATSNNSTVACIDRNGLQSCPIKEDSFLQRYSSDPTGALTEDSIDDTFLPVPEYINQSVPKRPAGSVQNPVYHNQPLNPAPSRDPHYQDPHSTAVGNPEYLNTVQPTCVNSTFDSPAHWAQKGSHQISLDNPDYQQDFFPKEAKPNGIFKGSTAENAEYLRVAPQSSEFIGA
Experimental: as §1, §2, §3
The inhibitory activities of the compounds of the present invention against EGFR (L858R) kinase activity were measured.
The materials, the measurement method, and the data analysis method were substantially the same as those shown in the above description regarding “Measurement of EGFR (T790M/L858R) Kinase Inhibitory Activity,” except that a purified recombinant human EGFR (L858R) protein purchased from Carna Biosciences, Inc. was used as the kinase protein, and the measurement was performed with ATP at a final concentration of 4 μM. Finally, the IC50 value (nM) of each compound with respect to EGFR (L858R) was determined by data analysis.

T1 sequence (P00533 with tags, fused parts or gaps DEL746-750/T790M limits assumed): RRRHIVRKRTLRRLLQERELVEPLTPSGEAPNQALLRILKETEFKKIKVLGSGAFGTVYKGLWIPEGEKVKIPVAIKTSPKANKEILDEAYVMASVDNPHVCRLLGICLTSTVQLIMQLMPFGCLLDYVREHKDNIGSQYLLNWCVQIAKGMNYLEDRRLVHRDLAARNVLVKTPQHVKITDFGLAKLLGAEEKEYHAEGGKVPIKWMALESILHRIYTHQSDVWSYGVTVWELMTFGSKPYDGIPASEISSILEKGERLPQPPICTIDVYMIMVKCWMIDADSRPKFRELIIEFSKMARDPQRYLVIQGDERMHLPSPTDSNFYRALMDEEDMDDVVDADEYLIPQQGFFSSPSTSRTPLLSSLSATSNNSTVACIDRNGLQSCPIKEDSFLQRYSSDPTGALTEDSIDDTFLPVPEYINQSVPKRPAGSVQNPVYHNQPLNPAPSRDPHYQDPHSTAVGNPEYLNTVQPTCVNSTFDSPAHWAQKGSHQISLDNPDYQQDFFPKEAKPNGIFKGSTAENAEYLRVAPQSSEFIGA

Row | Structure (SMILES) | pIC50 [1] | GI50 [2] [nM] | GI50 [3] [nM] | GI50 [4] [nM] | pIC50 [5] | pIC50 [6] | pIC50 [7] | pIC50 [8]
1 | C=C1c2c(-c3cnc4ccccc4c3)c3c(N)ncnc3n2C[C@H]1NC(=O)/C=C/CN(C)C(C)C [Example 12, (S,E)-N-(4-amino-6-methylene-5-(quinolin-3-yl)-7,8-dihydro-6H-pyrimido[5,4-b]pyrrolizin-7-yl)-4-(isopropyl(methyl)amino)but-2-enamide] | 9.54 | 3500 | 240 | 7.9 | 9.12 | 9.18 | 7.96 | 8.92
2 | C=CC(=O)N[C@@H]1CCn2c(c(-c3cnc4ccccc4c3)c3c(N)ncnc32)C1=C [Example 13, (R)—N-(4-amino-6-methylene-5-(quinolin-3-yl)-6,7,8,9-tetrahydropyrimido[5,4-b]indolizin-7-yl)acrylamide] | 8.96 | 1200 | 150 | 13 | 8.68 | 8.68 | 7.62 | 8.55
3 | C=CC(=O)N[C@H]1C=C(C)c2c(-c3cnc4ccccc4c3)c3c(N)ncnc3n2C1 [Example 14, (S)—N-(4-amino-6-methyl-5-(quinolin-3-yl)-8,9-dihydropyrimido[5,4-b]indolizin-8-yl)acrylamide] | > 9.30 | 1900 | 22 | 2.5 | 9.72 | 9.62 | 8.54 | 9.49
4 | C=CC(=O)N[C@H]1CC(=C)c2c(-c3cnc4ccccc4c3)c3c(N)ncnc3n2C1 [Example 15, (S)—N-(4-amino-6-methylene-5-(quinolin-3-yl)-6,7,8,9-tetrahydropyrimido[5,4-b]indolizin-8-yl)acrylamide] | 8.92 | 2000 | 85 | 22 | 8.85 | 8.80 | 8.10 | 8.89
5 | C=CC(=O)N[C@@H]1C=C(C)c2c(-c3cnc4ccccc4c3)c3c(N)ncnc3n2C1 [Example 16, (R)—N-(4-amino-6-methyl-5-(quinolin-3-yl)-8,9-dihydropyrimido[5,4-b]indolizin-8-yl)acrylamide] | 8.52 | > 10000 | 600 | 27 | 7.82 | 7.96 | 6.32 | 7.41
6 | C=CC(=O)N[C@@H]1CC(=C)c2c(-c3cnc4ccccc4c3)c3c(N)ncnc3n2C1 [Example 17, (R)—N-(4-amino-6-methylene-5-(quinolin-3-yl)-6,7,8,9-tetrahydropyrimido[5,4-b]indolizin-8-yl)acrylamide] | 7.96 | > 10000 | 2900 | 160 | 7.41 | 7.64 | 6.24 | 7.30
7 | C=CC(=O)N[C@@H]1CCn2c(c(-c3cnc4ccccc4c3)c3c(N)ncnc32)C(=C)C1 [Example 18, (S)—N-(4-amino-6-methylene-5-(quinolin-3-yl)-7,8,9,10-tetrahydro-6H-pyrimido[5′,4′:4,5]pyrrolo[1,2-a]azepin-8-yl)acrylamide] | 8.89 | 4000 | 160 | 8.9 | 8.35 | 8.33 | 7.17 | 7.92
8 | C=CC(=O)N[C@H]1C/C(=C\C)c2c(-c3cnc4ccccc4c3)c3c(N)ncnc3n2C1 [Example 19, (S,E)-N-(4-amino-6-ethylidene-5-(quinolin-3-yl)-6,7,8,9-tetrahydropyrimido[5,4-b]indolizin-8-yl)acrylamide] | 9.55 | 990 | 49 | 5.6 | 9.38 | 9.59 | 8.66 | 9.57
9 | C=CC(=O)N(C)[C@H]1Cn2c(c(-c3cnc4ccccc4c3)c3c(N)ncnc32)C1=C [Example 21, (R)—N-(4-amino-6-methylene-5-(quinolin-3-yl)-7,8-dihydro-6H-pyrimido[5,4-b]pyrrolizin-7-yl)-N-methylacrylamide] | 9.47 | 2600 | 56 | 8.1 | 9.14 | 9.22 | 8.11 | 8.96
